The text below walks through data of ChEMBL document CHEMBL2384909, “Development of Novel Alkene Oxindole Derivatives As Orally Efficacious AMP-Activated Protein Kinase Activators” (ACS Med Chem Lett, 2013).

Data set [1] relates to Mus musculus. The experiment in a line: Antidiabetic activity in diet-induced obese C57BL/6J mouse assessed as reduction in plasma triglyceride at 50 mg/kg, po qd for 4 weeks (reference value: 0.62 +/- 0.02 mM). The class given is functional.
The subject of data set [2] is Mus musculus. The experiment in a line: Upregulation of CPT2 gene expression in C57BL/6J mouse muscles at 15 to 150 mg/kg, po. The class given is functional, organism-based. The note with it: Muscle tissue.
In data set [3] the test system is Mus musculus. Kind of data set: Upregulation of FABP3 gene expression in C57BL/6J mouse muscles at 15 to 150 mg/kg, po. The format is functional, organism-based. The note with it: Muscle tissue.
Data set [4] has as its system Mus musculus. Kind of data set: Upregulation of UCP2 gene expression in C57BL/6J mouse muscles at 15 to 150 mg/kg, po. The class given is functional, organism-based. The note with it: Muscle tissue.
In data set [5] the test system is Mus musculus. The experiment in a line: Upregulation of long chain acyl CoA dehydrogenase gene expression in C57BL/6J mouse muscles at 15 to 150 mg/kg, po. The format is functional, organism-based. The note with it: Muscle tissue.
Data set [6] concerns Mus musculus. The experiment in a line: Antidiabetic activity in diet-induced obese C57BL/6J mouse assessed as decrease in AUC at 50 to 150 mg/kg, po qd for 4 weeks by glucose tolerance test relative to control. The note with it: dose mg/kg 50-150. Also on record: scale not given: the % may be the effect or the level left. The format is functional.
In data set [7] the test system is L6. The experiment in a line: Induction of AMPK-mediated ACC phosphorylation in rat L6 cells by Western blotting analysis. The format is cell-based. (In general: In western blotting, separated proteins are transferred to a membrane and probed.)
Data set [8] addresses AMPK alpha2/beta1/gamma1 (Homo sapiens) (UniProt P54646+P54619+Q9Y478). Kind of data set: Activation of recombinant AMPK alpha2beta1gamma1 (unknown origin) at 20 ug/mL after 2 hrs by scintillation proximity assay relative to AMP. The class given is protein-complex assay. In general terms: In a scintillation proximity assay essentially only radioactivity close to the scintillant gives light.

For data set [9], the system named is Mus musculus. The experiment in a line: Upregulation of COX5B gene expression in C57BL/6J mouse muscles at 15 to 150 mg/kg, po. The class given is functional, organism-based. The note with it: Muscle tissue.
Data set [10] deals with L6. Kind of data set: Activation of AMPK alpha1 D159A/alpha2 K45R mutant in rat L6 cells assessed as stimulation of glucose uptake after 15 mins. The class given is cell-based.
Data set [11] deals with Serine/threonine-protein kinase MARK2 (Homo sapiens) (UniProt Q7KZI7). The experiment in a line: Activity at MARK2 (unknown origin).
The test system of data set [12] is Mus musculus. The experiment in a line: Antidiabetic activity in diet-induced obese C57BL/6J mouse assessed as increase in insulin tolerance at 15 to 150 mg/kg, po qd for 4 weeks by insulin tolerance test relative to control. The class given is functional, organism-based.
Data set [13] is described as follows: AUC (0 to infinity) in Wistar rat at 10 mg/kg, po by LC-MS/MS analysis. The class given is ADME, organism-based. Also on record: time infinity, dose 10 mg/kg, route oral. The note with it: plasma.
The next data set addresses Cytochrome P450 3A4 (Homo sapiens, UniProt P08684). The experiment in a line: Inhibition of CYP3A4 (unknown origin). The format is ADME.
In another data set the test system is Liver microsomes. The experiment in a line: Drug metabolism in rat liver microsomes. The format is ADME, Microsome. On the technique in general: Microsomes from liver hold many membrane-bound enzymes, among them those of drug oxidation.
A short description of data set [14]: Drug metabolism in mouse liver microsomes. The class given is ADME, Microsome.
For data set [15], the system named is Mus musculus. Kind of data set: Upregulation of CPT1 gene expression in C57BL/6J mouse muscles at 15 to 150 mg/kg, po. The class given is functional, organism-based. The note with it: Muscle tissue.
Data set [16] has as its system Mus musculus. Kind of data set: Antidiabetic activity in diet-induced obese C57BL/6J mouse assessed as reduction in plasma triglyceride at 150 mg/kg, po qd for 4 weeks (reference value: 0.62 +/- 0.02 mM). The format is functional.
Data set [17] relates to Mus musculus. The experiment in a line: Upregulation of medium chain acyl CoA dehydrogenase gene expression in C57BL/6J mouse muscles at 15 to 150 mg/kg, po. The format is functional, organism-based. The note with it: Muscle tissue.

SMILES strings stand for the structures. Activity calls are given as the source filed them. The rule behind the calls is not given here.

Sequence of Cytochrome P450 3A4 (P08684 whole entry): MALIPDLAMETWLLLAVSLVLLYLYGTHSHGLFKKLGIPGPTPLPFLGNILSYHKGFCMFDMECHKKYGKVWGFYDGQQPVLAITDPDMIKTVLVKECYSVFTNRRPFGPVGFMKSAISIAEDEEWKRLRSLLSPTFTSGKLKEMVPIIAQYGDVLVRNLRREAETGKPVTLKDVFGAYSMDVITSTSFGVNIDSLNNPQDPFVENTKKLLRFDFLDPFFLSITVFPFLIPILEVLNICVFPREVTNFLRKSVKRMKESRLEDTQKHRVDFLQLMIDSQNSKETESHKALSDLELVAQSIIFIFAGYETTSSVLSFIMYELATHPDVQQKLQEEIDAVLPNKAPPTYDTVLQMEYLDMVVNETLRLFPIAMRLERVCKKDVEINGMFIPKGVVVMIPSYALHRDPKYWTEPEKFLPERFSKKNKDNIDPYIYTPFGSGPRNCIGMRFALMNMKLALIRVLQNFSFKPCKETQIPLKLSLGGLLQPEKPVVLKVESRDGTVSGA
Sequence of Serine/threonine-protein kinase MARK2 (Homo sapiens) (Q7KZI7 whole entry): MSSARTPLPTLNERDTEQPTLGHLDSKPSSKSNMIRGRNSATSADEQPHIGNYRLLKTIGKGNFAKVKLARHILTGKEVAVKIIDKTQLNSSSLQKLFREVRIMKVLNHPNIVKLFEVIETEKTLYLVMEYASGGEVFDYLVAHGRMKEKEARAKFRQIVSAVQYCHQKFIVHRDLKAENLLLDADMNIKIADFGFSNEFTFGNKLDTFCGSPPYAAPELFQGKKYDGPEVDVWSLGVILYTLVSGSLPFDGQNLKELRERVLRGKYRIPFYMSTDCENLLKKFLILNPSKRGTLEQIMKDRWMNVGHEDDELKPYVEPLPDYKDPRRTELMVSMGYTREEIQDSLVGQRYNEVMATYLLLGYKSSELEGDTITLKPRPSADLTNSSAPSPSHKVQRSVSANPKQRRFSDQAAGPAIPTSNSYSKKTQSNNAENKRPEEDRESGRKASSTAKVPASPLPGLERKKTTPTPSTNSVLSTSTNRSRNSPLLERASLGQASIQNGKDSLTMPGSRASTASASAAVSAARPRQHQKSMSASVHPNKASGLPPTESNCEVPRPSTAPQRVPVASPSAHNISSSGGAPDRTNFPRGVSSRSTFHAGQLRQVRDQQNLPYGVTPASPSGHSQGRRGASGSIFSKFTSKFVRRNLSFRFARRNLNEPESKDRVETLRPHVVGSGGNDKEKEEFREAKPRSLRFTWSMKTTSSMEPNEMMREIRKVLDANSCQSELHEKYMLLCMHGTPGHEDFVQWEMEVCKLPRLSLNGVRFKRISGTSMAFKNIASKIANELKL
Sequence of AMPK alpha2/beta1/gamma1 (Homo sapiens) (P54619 whole entry partner): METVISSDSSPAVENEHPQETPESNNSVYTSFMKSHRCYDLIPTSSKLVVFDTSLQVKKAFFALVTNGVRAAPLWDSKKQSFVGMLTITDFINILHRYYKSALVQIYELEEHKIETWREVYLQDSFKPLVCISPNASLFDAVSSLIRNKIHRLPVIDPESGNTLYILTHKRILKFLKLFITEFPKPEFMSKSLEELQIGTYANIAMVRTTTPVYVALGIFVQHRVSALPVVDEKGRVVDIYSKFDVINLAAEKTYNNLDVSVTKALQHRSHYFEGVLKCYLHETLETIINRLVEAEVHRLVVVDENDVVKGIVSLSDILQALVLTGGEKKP
Sequence of AMPK alpha2/beta1/gamma1 (Homo sapiens) (P54646 whole entry): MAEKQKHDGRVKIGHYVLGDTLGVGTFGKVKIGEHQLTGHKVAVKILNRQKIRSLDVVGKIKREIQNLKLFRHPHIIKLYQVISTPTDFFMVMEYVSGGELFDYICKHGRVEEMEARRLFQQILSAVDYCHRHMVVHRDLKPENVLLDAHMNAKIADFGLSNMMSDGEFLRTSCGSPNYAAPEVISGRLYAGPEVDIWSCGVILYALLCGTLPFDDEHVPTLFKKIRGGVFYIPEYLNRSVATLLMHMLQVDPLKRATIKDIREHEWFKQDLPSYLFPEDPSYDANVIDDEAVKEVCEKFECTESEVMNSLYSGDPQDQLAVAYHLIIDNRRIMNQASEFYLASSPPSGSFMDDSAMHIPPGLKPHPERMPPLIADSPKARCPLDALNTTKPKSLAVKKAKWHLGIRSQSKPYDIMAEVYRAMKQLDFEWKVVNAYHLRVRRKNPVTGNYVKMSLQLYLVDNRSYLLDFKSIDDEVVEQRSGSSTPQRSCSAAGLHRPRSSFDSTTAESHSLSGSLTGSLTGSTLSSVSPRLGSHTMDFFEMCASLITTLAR
Sequence of AMPK alpha2/beta1/gamma1 (Homo sapiens) (Q9Y478 2-270 partner limits assumed): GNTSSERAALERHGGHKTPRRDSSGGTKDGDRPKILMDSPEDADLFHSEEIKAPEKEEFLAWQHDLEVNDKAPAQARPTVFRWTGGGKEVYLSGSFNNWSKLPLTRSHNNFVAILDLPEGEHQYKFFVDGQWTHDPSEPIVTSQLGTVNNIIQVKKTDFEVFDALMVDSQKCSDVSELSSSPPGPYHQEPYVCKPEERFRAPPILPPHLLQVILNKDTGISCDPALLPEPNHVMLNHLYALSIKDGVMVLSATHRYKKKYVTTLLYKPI

As usually defined, the AUC(0-inf) is the area under the concentration-time curve extrapolated to infinity. Turning to `O=C(O)c1cccc(CN2C(=O)/C(=C(\c3ccccc3)c3ccc(Cl)cc3)c3ccccc32)c1`, the Activity in the data set on Mus musculus [1] was 0.52 mM; in the data set with Mus musculus [6] it was 30%; in the data set on L6 [7], “Dose-dependent effect”; in the data set with Mus musculus [16], 0.54 mM. The outcome in the data set on Mus musculus [2], with Mus musculus [3], in the data set with Mus musculus [4], in the data set with Mus musculus [5], with Mus musculus [9] and in the data set on Mus musculus [12] was Active. The outcome in the data set on Mus musculus [15] and in the data set on Mus musculus [17] was Active. In addition, the Efficacy in data set [8] was determined as 110%. Also, the result (in the data set on L6 [10]; in data set [11]) was inactive. This compound showed an AUC(0-inf) in data set [13] of 29500 ng·h/mL. Besides, the “inhibition (INH)” value at Cytochrome P450 3A4 is recorded as “Not Active”. In addition, the Drug metabolism result (with Liver microsomes; in data set [14]) was “Not Active” in each case.
